Among the data in ChEMBL document CHEMBL4483862, “Open-source discovery of chemical leads for next-generation chemoprotective antimalarials” (2018) are IC50 and IC90 values, retold here.

This test deals with Plasmodium berghei. Kind of test: Luciferase/luciferin-expressing antifolate-resistant parasites were used to infect a culture of HepG2 cells that were pre-incubated with compounds. Infected hepatocytes emit light due to the luciferase reaction. Assay results are presented as the percent inhibition of light emission compared to control. […]. In kind it is functional. The note with it: sporozoite; for IC90: read-out: LUCIFERASE INFECTION ASSAY - IC90.

Where [1] appears, read: read-out: LUCIFERASE INFECTION ASSAY - IC50.

What is called IC50 is the concentration that inhibits the measured activity by half. One may read the IC90 as the point of the concentration-response curve where the effect stands at 90%. For `COc1ccccc1N(Cc1cc2ccc(C)cc2[nH]c1=O)S(=O)(=O)c1ccccc1`, the IC90 was above 10 µM. Also, under setting [1], the IC50 was above 10 µM.

`Nc1ccc(-c2cnn3c(N4CCOCC4)ccnc23)cc1`: the IC90 is 8.75 µM. In addition, under “FFLUC_HILL_SLOPE 1.28, FFLUC_R_SQUARED 0.893, PBLUC_HILL_SLOPE 0.747, PBLUC_R_SQUARED 0.679, read-out: LUCIFERASE INFECTION ASSAY - IC50”, the IC50 amounted to 0.462 µM.

Regarding `CC(C)CN1/C(=C\c2cccc3[nH]ccc23)C(=O)c2ccccc2S1(=O)=O`, the IC90 is above 8.67 µM. The concentration for half-maximal inhibition (IC50) (FFLUC_HILL_SLOPE 2.19, FFLUC_R_SQUARED 0.818, HEPG2TOX_HILL_SLOPE 2.77, HEPG2TOX_R_SQUARED 0.93, read-out: LUCIFERASE INFECTION ASSAY - IC50) was above 8.67 µM.

Take `Cc1cn2c(/C=C/C(=O)Nc3cccc(Cl)c3N3CCOCC3)c(C)nc2s1`: the IC90 is above 10 µM. Besides, under setting [1], the IC50 was above 10 µM.

Turning to `OC(CNC1CCCc2ccccc21)COC(c1ccc(F)cc1)c1ccc(F)cc1` (stereo not given), the IC90 is above 10 µM. Further, under setting [1], the IC50 is above 10 µM.

As to `CS(=O)(=O)c1ccc(-c2ccc3ncc(-c4cccc(C(F)(F)F)c4)n3n2)cc1`, the concentration for an effect of 90% (IC90) was above 10 µM. The IC50 under setting [1] was 2.78 µM.

On to `CC1CCCCN1CCCNC(=S)Nc1cc(C(F)(F)F)cc(C(F)(F)F)c1` (stereo not given), for which the IC90 is above 7.72 µM. In addition, the IC50 (PBLUC_HILL_SLOPE 2.02, PBLUC_R_SQUARED 0.36, read-out: LUCIFERASE INFECTION ASSAY - IC50) is 3.73 µM.

As to `CN(C)C(=O)c1cccc(-c2cnc3c(NC=O)cc(-c4ccsc4)cn23)c1`, the IC90 was above 8.45 µM. Also, the IC50 under setting [1] was above 8.45 µM.

For the compound `N#CCNc1ccccc1` [(PHENYLAMINO)ACETONITRILE], the IC90 is above 10 µM. In addition, the IC50 under setting [1] is above 10 µM.

In the case of `O=c1c(Cl)c(Cl)cnn1-c1nc2ccccc2[nH]1`, the IC90 worked out at 1.65 µM. Also, the IC50 (HEPG2TOX_HILL_SLOPE 2.11, HEPG2TOX_R_SQUARED 0.958, PBLUC_HILL_SLOPE 7.93, PBLUC_R_SQUARED 0.809, read-out: LUCIFERASE INFECTION ASSAY - IC50) turned out to be 1.25 µM.

As for `COc1ccccc1-n1c(SCC(=O)NNC(=O)c2ccc([N+](=O)[O-])cc2)nc2ccccc2c1=O`, the IC90 was above 10 µM. Besides, the concentration for half-maximal inhibition (IC50) (FFLUC_HILL_SLOPE 2.82, FFLUC_R_SQUARED 0.966, read-out: LUCIFERASE INFECTION ASSAY - IC50) was above 10 µM.

On to `COc1cccc2cc(C(=O)/C=C/c3c(C)nc4sc(C)cn34)oc12`, for which the IC90 is above 10 µM. Besides, under setting [1], the IC50 is above 10 µM.

For `CCCn1nc(C(=O)N2CC(C)CC(C)C2)ccc1=O` (stereo not given), the IC90 is above 10 µM. Further, the IC50 under setting [1] was above 10 µM.

`O=C(CCN1CCN(c2ccc([N+](=O)[O-])cc2)CC1)N1CCN(c2ccccn2)CC1`: the IC90 was found to be 4.57 µM. Also, the IC50 (HEPG2TOX_HILL_SLOPE 9.17, HEPG2TOX_R_SQUARED 0.128, PBLUC_HILL_SLOPE 14.9, PBLUC_R_SQUARED 0.446, read-out: LUCIFERASE INFECTION ASSAY - IC50) came out at 3.94 µM.

As for `CCc1cn(Cc2ccccc2)c[n+]1Cc1ccccc1`, the IC90 is above 10.5 µM. Besides, under “FFLUC_HILL_SLOPE 0.817, FFLUC_R_SQUARED 0.751, PBLUC_HILL_SLOPE 3.02, PBLUC_R_SQUARED 0.429, read-out: LUCIFERASE INFECTION ASSAY - IC50”, the half-maximal inhibitory concentration (IC50) is 5.71 µM.

Regarding `Cc1cc2[nH]c(C)cc(=O)n2n1`, the IC90 is above 20.2 µM. Further, where the note is “FFLUC_HILL_SLOPE 10.3, FFLUC_R_SQUARED 0.148, read-out: LUCIFERASE INFECTION ASSAY - IC50”, the IC50 was above 20.2 µM.

For `NC(c1csc(Nc2cc(NCc3ccco3)ncn2)n1)C1CCCCC1` (stereo not given), the IC90 is above 8.58 µM. Besides, the IC50 under setting [1] was above 8.58 µM.

For `C#CC(CC)(CC)NC(=O)CSc1nc(C)nc2sc3c(c12)CCC3`, the IC90 is above 10 µM. Also, the IC50 under setting [1] is above 10 µM.

Take `Clc1ccc(-c2cnc3cnc(-c4ccco4)cn23)cc1`: the 90% effect concentration (IC90) was above 11.2 µM. For the same compound, under “FFLUC_HILL_SLOPE 15, FFLUC_R_SQUARED 0.745, PBLUC_HILL_SLOPE 1.06, PBLUC_R_SQUARED 0.544, read-out: LUCIFERASE INFECTION ASSAY - IC50”, the IC50 came out at 7.89 µM.

As to `CCCCC(=O)OCC(=O)Nc1nc(-c2ccc(C)cc2O)cs1`, the IC90 was above 10 µM. Further, under setting [1], the 50% inhibitory concentration (IC50) is above 10 µM.

Take `CCOC(=O)C1=C(N)n2c(s/c(=C\c3ccc(OC)cc3)c2=O)=CC1c1ccc(OC)cc1` (stereo not given): the IC90 was above 7.1 µM. In addition, the IC50 under setting [1] is above 7.1 µM.

With `Cc1nn(-c2ccccc2)c2c1C(c1cccnc1)C(c1nc3ccccc3s1)C(c1ccccc1)=N2` (stereo not given), the IC90 was above 10 µM. The IC50 (FFLUC_HILL_SLOPE 3.11, FFLUC_R_SQUARED 0.548, read-out: LUCIFERASE INFECTION ASSAY - IC50) was above 10 µM.

On to `O=C(OCc1ncc(-c2ccccc2)o1)c1cc([N+](=O)[O-])ccc1N1CCOCC1`, for which the IC90 came to 3.4 µM. The IC50 (HEPG2TOX_HILL_SLOPE 0.712, HEPG2TOX_R_SQUARED 0.947, PBLUC_HILL_SLOPE 1.1, PBLUC_R_SQUARED 0.629, read-out: LUCIFERASE INFECTION ASSAY - IC50) was found to be 0.465 µM.

On to `Cc1cccc(Nc2ccccc2C(=O)Oc2ccc(Cl)cc2Cc2ccccc2)c1C`, for which the IC90 was above 10 µM. The IC50 (HEPG2TOX_HILL_SLOPE 0.105, HEPG2TOX_R_SQUARED 0.052, read-out: LUCIFERASE INFECTION ASSAY - IC50) is above 10 µM.

For the compound `CCN1C(=O)N(Cc2ccccn2)C(=O)C12CCN(Cc1ccc3c(c1)Cc1ccccc1-3)CC2`, the IC90 came out at 6.49 µM. Moreover, where the note is “HEPG2TOX_HILL_SLOPE 46.6, HEPG2TOX_R_SQUARED 0.935, PBLUC_HILL_SLOPE 4.5, PBLUC_R_SQUARED 0.25, read-out: LUCIFERASE INFECTION ASSAY - IC50”, the IC50 is 3.98 µM.

For `Cc1cc(C)cc(C(=O)/C=c2\[nH]c(=O)/c(=C\c3cccs3)s2)c1`, the IC90 was above 10 µM. Besides, under setting [1], the IC50 was above 10 µM.

As for `Cc1c(-c2nc3ccccc3[nH]2)c(NC(=O)C(C)C)n(Cc2ccccc2)c1C`, the IC90 was determined as 5.02 µM. Besides, where the note is “FFLUC_HILL_SLOPE 4.87, FFLUC_R_SQUARED 0.116, PBLUC_HILL_SLOPE 2.35, PBLUC_R_SQUARED 0.356, read-out: LUCIFERASE INFECTION ASSAY - IC50”, the IC50 is 1.97 µM.

For the compound `COc1ccccc1NS(=O)(=O)c1ccc2c(c1)N=Cc1c(C)nn(-c3ccc(Cl)cc3)c1O2`, the IC90 was above 10 µM. Besides, for the setting “HEPG2TOX_HILL_SLOPE 6.8, HEPG2TOX_R_SQUARED 0.772, PBLUC_HILL_SLOPE 15.5, PBLUC_R_SQUARED 0.126, read-out: LUCIFERASE INFECTION ASSAY - IC50”, the 50% inhibitory concentration (IC50) turned out to be 9.36 µM.

Take `Cc1ccc2c(c1)CCCN2CC(=O)Nc1sccc1C(N)=O`: the IC90 was above 10 µM. The IC50 under setting [1] is above 10 µM.

For the compound `CON(C)S(=O)(=O)c1ccc(NC(=O)COc2cccc(C(C)(C)C)c2)cc1`, the IC90 was above 10 µM. Besides, under setting [1], the IC50 was above 10 µM.

As to `C=CCN(CC(=O)NC1CCS(=O)(=O)C1)S(=O)(=O)c1ccccc1C(F)(F)F` (stereo not given), the IC90 is above 10 µM. Further, under “FFLUC_HILL_SLOPE 0.888, FFLUC_R_SQUARED 0.174, read-out: LUCIFERASE INFECTION ASSAY - IC50”, the IC50 was above 10 µM.

Regarding `CC(C)(C)c1csc(NC(=O)Nc2ccccc2)n1`, the IC90 was above 12 µM. The IC50 (HEPG2TOX_HILL_SLOPE 1.38, HEPG2TOX_R_SQUARED 0.755, PBLUC_HILL_SLOPE 7.68, PBLUC_R_SQUARED 0.272, read-out: LUCIFERASE INFECTION ASSAY - IC50) was 9.6 µM.

Regarding `COc1ccc(C2CC(CCc3c[nH]c4ccccc34)=NN2c2ccccc2)cc1` (stereo not given), the IC90 was determined as 3.8 µM. The IC50 under setting [1] worked out at 3.35 µM.

With `C/C(=N\NC(=S)Nc1ccc(Cl)cc1)c1ccn[nH]1`, the IC90 is 4.51 µM. Also, the half-maximal inhibitory concentration (IC50) (HEPG2TOX_HILL_SLOPE 2.63, HEPG2TOX_R_SQUARED 0.844, PBLUC_HILL_SLOPE 3.05, PBLUC_R_SQUARED 0.682, read-out: LUCIFERASE INFECTION ASSAY - IC50) was 2.19 µM.

Take `CCOc1ccc(NC(=O)c2ccccc2NC(=O)COC(=O)/C(=C/c2cc(OC)c(OC)c(OC)c2)c2ccc(-c3ccccc3)cc2)cc1`: the IC90 is above 10 µM. For the same compound, the IC50 (FFLUC_HILL_SLOPE 2.07, FFLUC_R_SQUARED 0.755, PBLUC_HILL_SLOPE 3.07, PBLUC_R_SQUARED 0.285, read-out: LUCIFERASE INFECTION ASSAY - IC50) came out at 6.17 µM.

On to `Cc1nnsc1C(=O)Nc1ccc(-n2nc(C(F)(F)F)cc2C(F)(F)F)cc1`, for which the 90% effect concentration (IC90) was above 7.83 µM. The half-inhibitory concentration (IC50) (PBLUC_HILL_SLOPE 2.63, PBLUC_R_SQUARED 0.209, read-out: LUCIFERASE INFECTION ASSAY - IC50) was determined as 5.65 µM.

Regarding `Cc1nn(-c2ccccc2)c(Cl)c1C(=O)N1CCN(C(c2ccccc2)c2ccccc2)CC1`, the IC90 is above 10 µM. In addition, under setting [1], the IC50 was above 10 µM.

On to `COc1cccc(CN2CCC2(C)C(=O)Nc2cccc(Oc3ccccc3)c2)c1F` (stereo not given), for which the IC90 is above 7.85 µM. The IC50 (HEPG2TOX_HILL_SLOPE 2.25, HEPG2TOX_R_SQUARED 0.907, PBLUC_HILL_SLOPE 3.39, PBLUC_R_SQUARED 0.419, read-out: LUCIFERASE INFECTION ASSAY - IC50) worked out at 5.73 µM.

As for `Cc1cc(N2CCN(c3nc(C)cc(C)c3C#N)CC2)nc(C(C)C)n1`, the IC90 was above 10 µM. For the same compound, the IC50 under setting [1] was above 10 µM.

As for `COc1ccc2c(c1)CCCN2C(=O)c1occc1C`, the IC90 was 1.23 µM. For the same compound, where the note is “HEPG2TOX_HILL_SLOPE 0.966, HEPG2TOX_R_SQUARED 0.937, PBLUC_HILL_SLOPE 15.5, PBLUC_R_SQUARED 0.354, read-out: LUCIFERASE INFECTION ASSAY - IC50”, the IC50 was 1.07 µM.
